The numbers were not newly measured in patent US9265724B2, “Oral dosage form of tetrahydrocannabinol and a method of avoiding and/or suppressing hepatic first pass metabolism via targeted chylomicron/lipoprotein delivery” (priority 2005, dated 2016), which cites them from elsewhere.

A value given as a limit tells only on which side of the number the result lay.

The conditions of series [1]: low aqueous solubility and high permeability.

For the molecule `CCCCCc1cc(O)c2c(c1)OC(C)(C)[C@@H]1CCC(C)=C[C@@H]21` [Δ^9-THC, Δ^9-tetrahydrocannabinol], in series [1], the “biopharmaceutical classification system (BCS) class” value is reported as “Class II”. Moreover, the absorbed (after a single oral dose) is recorded as 90-95%. Further, the “continuation of appetite stimulant effect” value (after administration) is at least 24 h. Besides, for the setting “after oral administration”, the “duration of action for psychoactive effects” value was 4 to 6 h and the peak effect was 2 to 4 h. Also, the “administered dose that reaches systemic circulation” value (oral) was 10-20%. In addition, the maximal plasma levels result (oral dosing of 20 mg in a sesame oil formulation) is recorded as “around 10 ng/ml”.
